Measurements published in PubChem BioAssay AID248 (DTP/NCI, 2004).
“And” between values parts separate entries of the source, which are not always exact repeats. Identical values can stand only once. Toxic doses and inconclusive results are not listed. No stated cut-off is given here; in the data, active means T/C of 150% or more; inactive means T/C below 125%. Square brackets hold non-standard residues; d marks the D form. Peptide text beside a SMILES is read from it. * marks the point of attachment. ξ: configuration not given here. Cbz = O=C(OCc1ccccc1)*; ξI = CCC(C)C(N)C(=O)O

Test system: L1210 leukemia ip in BDF1 mice, survival T/C
Test: NCI In Vivo Anticancer Drug Screen. Data for tumor model L1210 Leukemia (intraperitoneal) in B6D2F1 (BDF1) mice
Settings: endpoint: mean survival time, higher = longer survival
In short: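 Antitumor effect is assessed in tumor-bearing animals. Survival in the compound arm is compared with a vehicle-dosed control arm and expressed as their quotient.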

[1] = dose: 50.0 mg/kg/injection, schedule: Q01DX009 (ip), vehicle: saline with Tween-80
[2] = dose: 100.0 mg/kg/injection, schedule: Q01DX009 (ip), vehicle: saline with Tween-80
[3] = dose: 100.0 mg/kg/injection, schedule: Q04DX003 (ip), vehicle: saline with Tween-80
[4] = dose: 200.0 mg/kg/injection, schedule: Q04DX003 (ip), vehicle: saline with Tween-80
[5] = dose: 400.0 mg/kg/injection, schedule: Q04DX003 (ip), vehicle: saline with Tween-80
[6] = dose: 100.0 mg/kg/injection, schedule: Q04DX003 (ip), vehicle: Klucel (hydroxypropylcellulose) (HPC)
[7] = dose: 15.0 mg/kg/injection, schedule: Q01DX Z (ip), vehicle: carboxymethylcellulose (CMC)
[8] = dose: 30.0 mg/kg/injection, schedule: Q01DX Z (ip), vehicle: carboxymethylcellulose (CMC)
[9] = dose: 100.0 mg/kg/injection, schedule: Q01DX001 (ip), vehicle: other
[10] = dose: 200.0 mg/kg/injection, schedule: Q01DX001 (ip), vehicle: other
[11] = dose: 400.0 mg/kg/injection, schedule: Q01DX001 (ip), vehicle: other
[12] = dose: 200.0 mg/kg/injection, schedule: Q04DX003 (ip), vehicle: Klucel (hydroxypropylcellulose) (HPC)
[13] = dose: 400.0 mg/kg/injection, schedule: Q04DX003 (ip), vehicle: Klucel (hydroxypropylcellulose) (HPC)

Measured: T/C

CC1([N+](=O)[O-])COP(=O)(N2CC2)OC1 (stereo unspecified)
inactive: dose: 62.5 mg/kg/injection, schedule: Q01DX Z (ip), vehicle: carboxymethylcellulose (CMC) 87 % of control | dose: 125.0 mg/kg/injection, schedule: Q01DX Z (ip), vehicle: carboxymethylcellulose (CMC) 90 % of control

CC1(c2cccs2)NC(=O)N(Cl)C1=O (stereo unspecified)
inactive: dose: 25.0 mg/kg/injection, schedule: Q01DX009 (ip), vehicle: saline with Tween-80 93 % of control | dose: 25.0 mg/kg/injection, schedule: Q04DX003 (ip), vehicle: saline with Tween-80 99 % of control | [1] 96 % of control | dose: 50.0 mg/kg/injection, schedule: Q04DX003 (ip), vehicle: saline with Tween-80 99 % of control | [2] 105 % of control | [3] 100 % of control and 91 % of control | dose: 200.0 mg/kg/injection, schedule: Q01DX009 (ip), vehicle: saline with Tween-80 94 % of control

CCC(C)C(NC(=O)CNC(=O)OCc1ccccc1)C(=O)OC (stereo not drawn) (Cbz-Gly-[ξI]-OMe)
inactive: [3] 101 % of control | [4] 98 % of control | [5] 96 % of control

Cc1c[n+]([O-])ccc1N=Nc1ccc(N(C)C)cc1
inactive: dose: 25.0 mg/kg/injection, schedule: Q04DX003 (ip), vehicle: Klucel (hydroxypropylcellulose) (HPC) 104 % of control | dose: 50.0 mg/kg/injection, schedule: Q04DX003 (ip), vehicle: Klucel (hydroxypropylcellulose) (HPC) 110 % of control | [6] 106 % of control and 107 % of control

COc1cc2ccc(CC(N)=O)cc2cc1OC
inactive: dose: 100.0 mg/kg/injection, schedule: Q04DX003 (ip), vehicle: saline 100 % of control | dose: 200.0 mg/kg/injection, schedule: Q04DX003 (ip), vehicle: saline 97 % of control | dose: 400.0 mg/kg/injection, schedule: Q04DX003 (ip), vehicle: saline 98 % of control

C[N+](C)(C)/N=C\C1CC=CCC1 (stereo unspecified)
inactive: dose: 12.5 mg/kg/injection, schedule: Q01DX009 (ip), vehicle: saline 99 % of control | dose: 25.0 mg/kg/injection, schedule: Q01DX009 (ip), vehicle: saline 96 % of control | dose: 50.0 mg/kg/injection, schedule: Q01DX009 (ip), vehicle: saline 99 % of control and 105 % of control

ClP1(c2ccccc2)=NP(Cl)(c2ccccc2)=NP(Cl)(c2ccccc2)=NP(Cl)(c2ccccc2)=N1 (stereo unspecified)
inactive: [1] 97 % of control | [2] 89 % of control

CCCCCCCNCCC#N
inactive: dose: 100.0 mg/kg/injection, schedule: Q01DX001 (ip), vehicle: saline with Tween-80 95 % of control | dose: 200.0 mg/kg/injection, schedule: Q01DX001 (ip), vehicle: saline with Tween-80 89 % of control

C/C(=N/N=C(N)N)c1ccc(/C(C)=N/N=C(N)N)cc1
inactive: dose: 3.75 mg/kg/injection, schedule: Q01DX Z (ip), vehicle: saline 95 % of control | dose: 7.5 mg/kg/injection, schedule: Q01DX Z (ip), vehicle: carboxymethylcellulose (CMC) 100 % of control | dose: 7.5 mg/kg/injection, schedule: Q01DX Z (ip), vehicle: saline 101 % of control | [7] 107 % of control | dose: 15.0 mg/kg/injection, schedule: Q01DX Z (ip), vehicle: saline 110 % of control and 112 % of control | [8] 117 % of control | dose: 30.0 mg/kg/injection, schedule: Q01DX Z (ip), vehicle: saline 112 % of control | dose: 480.0 mg/kg/injection, schedule: Q01DX009 (oral), vehicle: saline 93 % of control | dose: 960.0 mg/kg/injection, schedule: Q01DX009 (oral), vehicle: saline 93 % of control

NC(N)=N/N=C(\c1ccc(Cl)cc1)C1CC1
inactive: dose: 15.0 mg/kg/injection, schedule: Q01DX Z (ip), vehicle: methylcellulose (MC) 101 % of control | dose: 30.0 mg/kg/injection, schedule: Q01DX Z (ip), vehicle: methylcellulose (MC) 95 % of control | dose: 30.0 mg/kg/injection, schedule: Q01DX Z (oral), vehicle: methylcellulose (MC) 92 % of control | dose: 60.0 mg/kg/injection, schedule: Q01DX Z (ip), vehicle: methylcellulose (MC) 98 % of control | dose: 60.0 mg/kg/injection, schedule: Q01DX Z (oral), vehicle: methylcellulose (MC) 93 % of control | dose: 240.0 mg/kg/injection, schedule: Q01DX Z (oral), vehicle: methylcellulose (MC) 95 % of control | dose: 375.0 mg/kg/injection, schedule: Q01DX Z (oral), vehicle: methylcellulose (MC) 92 % of control | dose: 500.0 mg/kg/injection, schedule: Q01DX Z (oral), vehicle: methylcellulose (MC) 88 % of control

O=C1/C(=C\c2ccccn2)c2ccccc2N1Cl
inactive: [9] 94 % of control | [10] 92 % of control | [11] 94 % of control

CCN(CC)CCNc1ccc(CO)c2oc3cc(Cl)ccc3c(=O)c12
inactive: dose: 31.25 mg/kg/injection, schedule: Q01DX009 (ip), vehicle: Klucel (hydroxypropylcellulose) (HPC) 94 % of control | dose: 62.5 mg/kg/injection, schedule: Q01DX009 (ip), vehicle: Klucel (hydroxypropylcellulose) (HPC) 100 % of control | dose: 125.0 mg/kg/injection, schedule: Q01DX009 (ip), vehicle: Klucel (hydroxypropylcellulose) (HPC) 96 % of control

CNc1ccc(N=Nc2ccncc2C)cc1C
inactive: [3] 102 % of control | [4] 96 % of control | [5] 96 % of control

CC1=C/C(=N/Nc2ccc([N+](=O)[O-])cc2[N+](=O)[O-])CCC1
inactive: dose: 50.0 mg/kg/injection, schedule: Q01DX009 (ip), vehicle: acetone 93 % of control | dose: 100.0 mg/kg/injection, schedule: Q01DX009 (ip), vehicle: acetone 88 % of control | dose: 100.0 mg/kg/injection, schedule: Q04DX003 (ip), vehicle: acetone 93 % of control | dose: 200.0 mg/kg/injection, schedule: Q04DX003 (ip), vehicle: acetone 86 % of control | dose: 400.0 mg/kg/injection, schedule: Q04DX003 (ip), vehicle: acetone 86 % of control

COC(=O)c1cncc(C(=O)OC)c1
inactive: dose: 100.0 mg/kg/injection, schedule: Q04DX003 (ip), vehicle: saline sonified 95 % of control | dose: 200.0 mg/kg/injection, schedule: Q04DX003 (ip), vehicle: saline sonified 104 % of control | dose: 400.0 mg/kg/injection, schedule: Q04DX003 (ip), vehicle: saline sonified 97 % of control

CCOC(C)C(/C=N/Nc1ccccc1)=N\Nc1ccccc1 (stereo unspecified)
inactive: [7] 98 % of control | [8] 97 % of control | dose: 60.0 mg/kg/injection, schedule: Q01DX Z (ip), vehicle: carboxymethylcellulose (CMC) 97 % of control | dose: 120.0 mg/kg/injection, schedule: Q01DX Z (ip), vehicle: carboxymethylcellulose (CMC) 92 % of control

CCCCOC(=O)c1cccc2c1-c1ccccc1C2=O
inactive: [9] 86 % of control | [10] 93 % of control | [11] 91 % of control

CN(C)c1ccc2c(c1)C(=NO)c1cc(N(C)C)ccc1-2
inactive: [6] 104 % of control | [12] 96 % of control | [13] 91 % of control

CC1(C)CC2(OC2c2ccccc2)C(C)(O)c2ccccc21 (stereo unspecified)
inactive: [3] 98 % of control | [4] 104 % of control | [5] 96 % of control

COC(=O)c1ccccc1C(=S)N1CCOCC1
inactive: [6] 97 % of control | [12] 96 % of control | [13] 94 % of control

c1cc2c(cc1-c1nnc(-c3ccc4c(c3)OCO4)nn1)OCO2
inactive: dose: 400.0 mg/kg/injection, schedule: Q01DX001 (ip), vehicle: saline with Tween-80 86 % of control
